Measurements taken from US20070134261A1, “Effectors of innate immunity” (priority 2001, published 2007).
Converted amounts (≈) assume the structure as drawn. Like-named read-outs stand apart in the source and are kept apart here. Residues, ends and D or L forms follow the SMILES beside them. No end group written: not given here.

Columns and labels:
[1] = format: cell-based
[2] = tested on: human bronchial epithelial cells (HBE); test: LDH release assay (Cytotoxicity Detection Kit); format: cell-based; settings: 24 hours; for LDH Release (OD490 nm): 100 μg/ml, no peptide control 1.0 ± 0.05; for toxicity / membrane damage: as measured by both assays (LDH, WST-1), HBE cells
Protocol: (§1) The potential toxicity of the peptides was measured in two ways. First, the Cytotoxicity Detection Kit (Roche) (Lactate dehydrogenase-LDH) Assay was used. It is a colorimetric assay for the quantification of cell death and cell lysis, based on the measurement of LDH activity released from the cytosol of damaged cells into the supernatant. LDH is a stable cytoplasmic enzyme present in all cells and it is released into the cell culture supernatant upon damage of the plasma membrane. An increase in the amount of dead or plasma membrane-damaged cells results in an increase of the LDH enzyme activity in the culture supernatant as measured with an ELISA plate reader, OD490 nm (the amount of color formed in the assay is proportional to the number of lysed cells). In this assay, human bronchial epithelial cells (I6HBEo14, HBE) cells were incubated with 100 μg of peptide for 24 hours, the supernatant removed and tested for LDH. The other assay used to measure toxicity of the cationic peptides was the WST-1 assay (Roche). This assay is a colorimetric assay for the quantification of cell proliferation and cell viability, based on the cleavage of the tetrazolium salt WST-1 by mitochondrial dehydrogenases in viable cells (a non-radioactive alternative to the [^3H]-thymidine incorporation assay). In this assay, HBE cells were incubated with 100 μg of peptide for 24 hours, and then 10 μl/well Cell Proliferation Reagent WST-1 was added. The cells are incubated with the reagent and the plate is then measured with an ELISA plate reader, OD490 nm.

[3] = tested on: HBE cells; test: WST-1 assay (cell viability); format: cell-based, human
Protocol: as §1

[4] = tested on: A549 epithelial cells; test: Human Operon arrays (PRHU04-S1) of A549 cells treated with peptide alone (Tables 31-37, 53); settings: peptide 50 μg/ml, 4 h, A549 cells; for X58467 cytochrome P450, expression Ratio ID#:ctrl: Table 36
[5] = Citobacter rhodensis, overnight, 96-well plate
[6] = Enterohaemorrhagic E. coli, overnight, 96-well plate
[7] = Escherichia coli, overnight, 96-well plate
[8] = Pseudomonas aeruginosa, overnight, 96-well plate
[9] = Salmonella enteritidis ssp. typhimurium, overnight, 96-well plate
[10] = Staphylococcus aureus, overnight, 96-well plate

| Compound | MIC, C. rhod. ([1]; 24 h) [µg/mL] | MIC, E. coli ([1]; 24 h) [µg/mL] | MIC, EHEC ([1]; 24 h) [µg/mL] | MIC, S. typhim. ([1]; 24 h) [µg/mL] | LDH Release (OD490 nm) [2] [OD490 nm] | OD490 nm (WST-1 cell viability) [3] [OD490 nm] | also measured |
| --- | --- | --- | --- | --- | --- | --- | --- |
| CC[C@H](C)[C@H](NC(=O)CNC(=O)[C@H](CCCNC(=N)N)NC(=O)[C@H](CCSC)NC(=O)[C@H](CO)NC(=O)[C@@H](NC(=O)[C@H](CCCNC(=N)N)NC(=O)[C@H](CCCNC(=N)N)NC(=O)[C@@H](NC(=O)[C@H](CS)NC(=O)[C@H](Cc1c[nH]cn1)NC(=O)[C@@H](N)CCCNC(=N)N)[C@@H](C)CC)C(C)C)C(=O)N[C@H](C(=O)N[C@@H](CCSC)C(=O)N[C@@H](CCCNC(=N)N)C(=O)N[C@@H](CCCNC(=N)N)C(=O)N[C@@H](CS)C(=O)N[C@@H](CCCCN)C(=O)O)[C@@H](C)CC [SEQ ID NO: 38] (H-RHCIRRVSMRGIIMRRCK-OH) | 8 (≈ 3.52 µM) | 0.5 (≈ 0.22 µM) | 4 (≈ 1.76 µM) | 4 (≈ 1.76 µM) | 0.95 ± 0.02 | 1.83 ± 0.03 | MIC, P. aerug. ([1]; 24 h): 64 µg/mL (≈ 28.2 µM); MIC, S. aureus ([1]; 24 h): 32 µg/mL (≈ 14.1 µM) |
| CC[C@H](C)[C@H](NC(=O)[C@H](CC(C)C)NC(=O)[C@H](C)NC(=O)[C@@H]1CCCN1C(=O)[C@H](CC(C)C)NC(=O)CNC(=O)[C@@H](NC(=O)[C@@H](NC(=O)[C@H](CC(C)C)NC(=O)[C@@H](NC(=O)[C@H](CCCCN)NC(=O)[C@H](CCCCN)NC(=O)[C@H](CC(C)C)NC(=O)[C@H](C)NC(=O)[C@H](CCCCN)NC(=O)[C@H](CCSC)NC(=O)[C@H](CC(C)C)NC(=O)[C@H](CCSC)NC(=O)[C@H](CCCCN)NC(=O)[C@H](CC(C)C)NC(=O)[C@H](Cc1ccccc1)NC(=O)[C@H](CO)NC(=O)[C@H](CCCCN)NC(=O)[C@H](CO)NC(=O)[C@@H](N)CCCCN)C(C)C)[C@@H](C)O)[C@@H](C)O)C(=O)N[C@@H](CO)C(=O)O [SEQ ID NO: 41] |  |  |  |  | 3.3 ± 0.2 | 0.40 ± 0.01 | MIC, C. rhod. [1, 5]: 2 µg/mL (≈ 0.702 µM); MIC, EHEC [1, 6]: 2 µg/mL (≈ 0.702 µM); MIC, E. coli [1, 7]: 4 µg/mL (≈ 1.4 µM); MIC, P. aerug. [1, 8]: 8 µg/mL (≈ 2.81 µM); MIC, S. typhim. [1, 9]: 8 µg/mL (≈ 2.81 µM); MIC, S. aureus [1, 10]: 64 µg/mL (≈ 22.5 µM); toxicity / membrane damage [2]: did induce membrane damage |
| DLPAKRGSAPGST [ID 12] |  |  |  |  |  |  | ID#:ctrl intensity ratio, M14565 cytochrome P450 [4]: 10.6 |
| Gentamicin |  |  |  |  |  |  | MIC, C. rhod. [1, 5]: 0.25 µg/mL; MIC, EHEC [1, 6]: 0.5 µg/mL; MIC, E. coli [1, 7]: 0.25 µg/mL; MIC, P. aerug. [1, 8]: 0.25 µg/mL; MIC, S. typhim. [1, 9]: 0.25 µg/mL; MIC, S. aureus [1, 10]: 0.25 µg/mL |
| KCKLFKKMLMLALKKVLTTGLPALKLTK [ID 40] |  |  |  |  |  |  | X58467 cytochrome P450, expression Ratio ID#:ctrl [4]: 15.4 |
| KCKLFKKMLMLALKKVLTTGLPALKLTK [SEQ ID NO: 40] |  |  |  |  | 2.8 ± 0.5 | 0.46 ± 0.06 | MIC, C. rhod. [1, 5]: 4 µg/mL; MIC, EHEC [1, 6]: 2 µg/mL; MIC, E. coli [1, 7]: 4 µg/mL; MIC, P. aerug. [1, 8]: 8 µg/mL; MIC, S. typhim. [1, 9]: 4 µg/mL; MIC, S. aureus [1, 10]: 32 µg/mL; toxicity / membrane damage [2]: did induce membrane damage |
| KESIKVIIRGMMVRMKK [SEQ ID NO: 35] | 8 | 4 | 4 | 8 | 0.88 ± 0.03 | 1.00 ± 0.08 | MIC, P. aerug. ([1]; 24 h): 64 µg/mL; MIC, S. aureus ([1]; 24 h): 128 µg/mL |
| KKDAIKKVDIRGMDMRRAR [SEQ ID NO: 28] | 64 |  | 128 | 64 | 0.96 ± 0.06 | 1.69 ± 0.03 |  |
| KKQMMKRVDVRGISVKRKR [SEQ ID NO: 34] | 64 | 8 | 8 | 32 | 1.02 ± 0.03 | 0.96 ± 0.05 |  |
| KMKSFAKMLMLALKKVLKVLTTALTLKAGLPS [ID 43] |  |  |  |  |  |  | X58467 cytochrome P450, expression Ratio ID#:ctrl [4]: 7.9 |
| KMKSFAKMLMLALKKVLKVLTTALTLKAGLPS [SEQ ID NO: 43] | 8 | 8 | 4 | 16 | 4.3 ± 0.2 | 0.46 ± 0.10 | MIC, P. aerug. ([1]; 24 h): 16 µg/mL; MIC, S. aureus ([1]; 24 h): 128 µg/mL; toxicity / membrane damage [2]: did induce membrane damage |
| KNKAFAKMLMKALKKVTTAAKPLTG [ID 44] |  |  |  |  |  |  | X58467 cytochrome P450, expression Ratio ID#:ctrl [4]: 34.4 |
| KNKAFAKMLMKALKKVTTAAKPLTG [SEQ ID NO: 44] | 64 | 8 | 64 | 128 | 0.97 ± 0.03 | 1.49 ± 0.39 | MIC, P. aerug. ([1]; 24 h): 128 µg/mL |
| KQKLFAKMLMSALKKKTLVTTPLAGK [ID 45] |  |  |  |  |  |  | X58467 cytochrome P450, expression Ratio ID#:ctrl [4]: 3.4 |
| KQKLFAKMLMSALKKKTLVTTPLAGK [SEQ ID NO: 45] | 16 | 8 | 16 | 128 | 0.98 ± 0.04 | 1.54 ± 0.35 | MIC, P. aerug. ([1]; 24 h): 128 µg/mL |
| KRTAIKKVSRRGMSVKARR [SEQ ID NO: 37] |  |  |  |  | 0.96 ± 0.04 | 1.67 ± 0.02 |  |
| KSRIVPAIPVSLL [SEQ ID NO: 7] |  |  |  |  | 1.01 ± 0.04 | 1.78 ± 0.10 |  |
| KTKKFAKMLMMALKKVVSTAKPLAILS [ID 42] |  |  |  |  |  |  | X58467 cytochrome P450, expression Ratio ID#:ctrl [4]: 4.7 |
